Measured values published in PubChem BioAssay AID330 (DTP/NCI, 2004).
Several values for one entry are separate records, joined by “and”; a condition that tells them apart may be missing. Equal entries are not always repeated. Inconclusive results and toxic doses are left out.

System: P388 leukemia ip, CD2F1 mice, survival T/C
Assay: NCI In Vivo Anticancer Drug Screen. Data for tumor model P388 Leukemia (intraperitoneal) in CD2F1 (CDF1) mice
Conditions: endpoint: median survival time, higher = longer survival
Procedure, shortened: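 Mice carrying the transplanted tumor received test compound or vehicle. Survival was recorded in each group, and the value is the treated-group measurement divided by that of the vehicle-treated control group.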

[1] = dose: 60.0 mg/kg/injection, schedule: Q01DX005 (ip), vehicle: saline with Tween-80
[2] = dose: 120.0 mg/kg/injection, schedule: Q01DX005 (ip), vehicle: saline with Tween-80
[3] = dose: 240.0 mg/kg/injection, schedule: Q01DX005 (ip), vehicle: saline with Tween-80
[4] = dose: 12.5 mg/kg/injection, schedule: Q01DX005 (ip), vehicle: saline
[5] = dose: 25.0 mg/kg/injection, schedule: Q01DX005 (ip), vehicle: saline
[6] = dose: 50.0 mg/kg/injection, schedule: Q01DX005 (ip), vehicle: saline with Tween-80
[7] = dose: 100.0 mg/kg/injection, schedule: Q01DX005 (ip), vehicle: saline with Tween-80
[8] = dose: 200.0 mg/kg/injection, schedule: Q01DX005 (ip), vehicle: saline with Tween-80

In the case of `CCN(CC)CC.[CH-]1CCCCC1.[CH-]1CCCCC1.[CH-]1CCCCC1.[Cl-].[I-].[Sn+4]`, the T/C (dose: 1.5 mg/kg/injection, schedule: Q01DX005 (ip), vehicle: Klucel (hydroxypropylcellulose) (HPC)) is reported as 96 % of control, the T/C (dose: 3.0 mg/kg/injection, schedule: Q01DX005 (ip), vehicle: Klucel (hydroxypropylcellulose) (HPC)) is reported as 98 % of control and the T/C (dose: 6.0 mg/kg/injection, schedule: Q01DX005 (ip), vehicle: Klucel (hydroxypropylcellulose) (HPC)) is reported as 100 % of control and 93 % of control.

`Cn1/c(=N\N=C\c2ccccc2OCCO)sc2ccccc21` was tested, and the T/C (dose: 50.0 mg/kg/injection, schedule: Q01DX009 (ip), vehicle: saline + alcohol) was 103 % of control, the T/C (dose: 100.0 mg/kg/injection, schedule: Q01DX009 (ip), vehicle: saline + alcohol) was 100 % of control and the T/C (dose: 200.0 mg/kg/injection, schedule: Q01DX009 (ip), vehicle: saline + alcohol) was 101 % of control.

For `CC1=CC(C)(C)Nc2ccc(OC(=O)/C=C(C)/C=C/C=C(C)/C=C/C3=C(C)CCCC3(C)C)cc21`, the T/C [1] was 94 % of control, the T/C [2] was 91 % of control and the T/C [3] was 94 % of control.

With `COc1cc(C(NC(N)=O)c2cc3c(cc2OC(C)=O)OCO3)cc(OC)c1OC` (stereo not given) the T/C (dose: 60.0 mg/kg/injection, schedule: Q01DX005 (ip), vehicle: Klucel (hydroxypropylcellulose) (HPC)) was 90 % of control and the T/C (dose: 120.0 mg/kg/injection, schedule: Q01DX005 (ip), vehicle: Klucel (hydroxypropylcellulose) (HPC)) was 86 % of control.

`CSC1(c2ccccc2NS(=O)(=O)c2ccccc2)SCCS1` was tested, and the T/C (dose: 50.0 mg/kg/injection, schedule: Q04DX003 (ip), vehicle: saline) was 102 % of control, the T/C (dose: 100.0 mg/kg/injection, schedule: Q04DX003 (ip), vehicle: saline) was 92 % of control and the T/C (dose: 200.0 mg/kg/injection, schedule: Q04DX003 (ip), vehicle: saline) was 89 % of control.

In the case of `ClC(=Nc1ccccc1)c1ccccn1`, the T/C (dose: 12.5 mg/kg/injection, schedule: Q01DX009 (ip), vehicle: Klucel (hydroxypropylcellulose) (HPC)) is reported as 101 % of control, the T/C (dose: 25.0 mg/kg/injection, schedule: Q01DX009 (ip), vehicle: Klucel (hydroxypropylcellulose) (HPC)) is reported as 101 % of control and the T/C (dose: 50.0 mg/kg/injection, schedule: Q01DX009 (ip), vehicle: Klucel (hydroxypropylcellulose) (HPC)) is reported as 96 % of control.

In the case of `COC1/C=C\CC2=CCCC=C2CC1` (stereo not given), the T/C (dose: 25.0 mg/kg/injection, schedule: Q01DX009 (sc), vehicle: olive oil, sesame oil, peanut oil) is reported as 100 % of control, the T/C (dose: 50.0 mg/kg/injection, schedule: Q01DX009 (sc), vehicle: olive oil, sesame oil, peanut oil) is reported as 97 % of control and the T/C (dose: 100.0 mg/kg/injection, schedule: Q01DX009 (sc), vehicle: olive oil, sesame oil, peanut oil) is reported as 97 % of control. For the same molecule, the T/C (dose: 200.0 mg/kg/injection, schedule: Q01DX009 (sc), vehicle: olive oil, sesame oil, peanut oil) was 95 % of control.

For `COc1cc(NC(C)CCCNC(C)C)c2ncccc2c1OC` (stereo not given), the T/C (dose: 6.25 mg/kg/injection, schedule: Q01DX005 (ip), vehicle: saline) was 103 % of control, the T/C [4] was 93 % of control and the T/C [5] was 93 % of control.

With `C[n+]1ccc(Nc2ccc(NC(=O)c3ccc(Nc4cc[n+](C)c5ccc(N)cc45)cc3)cc2)cc1` the T/C (dose: 1.0 mg/kg/injection, schedule: Q04DX003 (ip), vehicle: Klucel (hydroxypropylcellulose) (HPC)) was 116 % of control, the T/C (dose: 2.0 mg/kg/injection, schedule: Q01DX005 (ip), vehicle: suspension in saline) was 187 % of control and the T/C (dose: 2.0 mg/kg/injection, schedule: Q04DX003 (ip), vehicle: Klucel (hydroxypropylcellulose) (HPC)) was 166 % of control. For the same molecule, the T/C (dose: 2.88 mg/kg/injection, schedule: Q04DX003 (ip), vehicle: water) was 158 % of control, the T/C (dose: 4.0 mg/kg/injection, schedule: Q01DX005 (ip), vehicle: suspension in saline) was 239 % of control and the T/C (dose: 4.0 mg/kg/injection, schedule: Q04DX003 (ip), vehicle: Klucel (hydroxypropylcellulose) (HPC)) was 168 % of control. The T/C (dose: 4.8 mg/kg/injection, schedule: Q04DX003 (ip), vehicle: water) was 167 % of control, the T/C (dose: 8.0 mg/kg/injection, schedule: Q01DX005 (ip), vehicle: suspension in saline) was 283 % of control and the T/C (dose: 8.0 mg/kg/injection, schedule: Q04DX003 (ip), vehicle: Klucel (hydroxypropylcellulose) (HPC)) was 237 % of control. For the same molecule, the T/C (dose: 8.0 mg/kg/injection, schedule: Q04DX003 (ip), vehicle: water) was 200 % of control, the T/C (dose: 9.0 mg/kg/injection, schedule: Q04DX003 (ip), vehicle: water) was 170 % of control and the T/C (dose: 13.3 mg/kg/injection, schedule: Q04DX003 (ip), vehicle: water) was 238 % of control. For the same molecule, the T/C (dose: 16.0 mg/kg/injection, schedule: Q04DX003 (ip), vehicle: Klucel (hydroxypropylcellulose) (HPC)) was 270 % of control and the T/C (dose: 32.0 mg/kg/injection, schedule: Q04DX003 (ip), vehicle: Klucel (hydroxypropylcellulose) (HPC)) was 294 % of control.

With `COc1cc(NCCCCC(C)N)c2nccc(C)c2c1` (stereo not given) the T/C (dose: 12.5 mg/kg/injection, schedule: Q01DX009 (ip), vehicle: saline) was 94 % of control and the T/C (dose: 25.0 mg/kg/injection, schedule: Q01DX009 (ip), vehicle: saline) was 92 % of control.

`C[C@H]1CC(=O)C[C@H]2CCCCN21` was tested, and the T/C [4] was 103 % of control, the T/C [5] was 105 % of control and the T/C (dose: 50.0 mg/kg/injection, schedule: Q01DX005 (ip), vehicle: saline) was 101 % of control.

`NC(Cc1c[nH]c2ccccc12)C(=O)NCCS(=O)(=O)O` (stereo not given) was tested, and the T/C [1] was 102 % of control, the T/C [2] was 104 % of control and the T/C [3] was 99 % of control.

`COc1ccc(S(=O)(=O)N/N=C\c2cc(I)cc(I)c2O)cc1` was tested, and the T/C [6] was 101 % of control, the T/C [7] was 102 % of control and the T/C [8] was 100 % of control.

For `Nc1ccc(/C=C\c2nccc3ccccc23)cc1`, the T/C (dose: 3.13 mg/kg/injection, schedule: Q01DX009 (ip), vehicle: saline with Tween-80) was 102 % of control.

For `CCCCCCCCOCC(=O)O`, the T/C (dose: 50.0 mg/kg/injection, schedule: Q01DX009 (ip), vehicle: saline with Tween-80) was 107 % of control, the T/C (dose: 100.0 mg/kg/injection, schedule: Q01DX009 (ip), vehicle: saline with Tween-80) was 94 % of control and the T/C (dose: 200.0 mg/kg/injection, schedule: Q01DX009 (ip), vehicle: saline with Tween-80) was 96 % of control.

In the case of `O=C(CCl)N1c2ccccc2Sc2ccc3ccccc3c21`, the T/C (dose: 50.0 mg/kg/injection, schedule: Q01DX009 (ip), vehicle: saline) is reported as 95 % of control, the T/C (dose: 100.0 mg/kg/injection, schedule: Q01DX009 (ip), vehicle: saline) is reported as 102 % of control and the T/C (dose: 200.0 mg/kg/injection, schedule: Q01DX009 (ip), vehicle: saline) is reported as 113 % of control.

In the case of `O=C(Nc1ccc(S(=O)(=O)Nc2nccs2)cc1)c1ccncc1`, the T/C [6] is reported as 102 % of control, the T/C [7] is reported as 102 % of control and the T/C [8] is reported as 102 % of control.

With `C=C(CN(C)C)C(=O)c1ccccc1Cl` the T/C (dose: 1.8 mg/kg/injection, schedule: Q01DX005 (ip), vehicle: saline) was 109 % of control, the T/C (dose: 3.75 mg/kg/injection, schedule: Q01DX005 (ip), vehicle: saline) was 106 % of control and the T/C (dose: 7.5 mg/kg/injection, schedule: Q01DX005 (ip), vehicle: saline) was 105 % of control and 107 % of control.

`Cc1cc(C)nc(NN=O)c1` was tested, and the T/C (dose: 3.12 mg/kg/injection, schedule: Q01DX009 (ip), vehicle: water) was 104 % of control and 112 % of control, the T/C (dose: 6.25 mg/kg/injection, schedule: Q01DX009 (ip), vehicle: water) was 121 % of control and the T/C (dose: 12.5 mg/kg/injection, schedule: Q01DX009 (ip), vehicle: water) was 121 % of control. For the same molecule, the T/C (dose: 50.0 mg/kg/injection, schedule: Q01DX009 (ip), vehicle: water) was 95 % of control.

In the case of `c1ccc(-c2c[s+]c(-c3ccccc3)s2)cc1`, the T/C (dose: 6.25 mg/kg/injection, schedule: Q01DX009 (ip), vehicle: distilled water + Tween-80) is reported as 117 % of control, the T/C (dose: 12.5 mg/kg/injection, schedule: Q01DX009 (ip), vehicle: distilled water + Tween-80) is reported as 100 % of control and the T/C (dose: 25.0 mg/kg/injection, schedule: Q01DX009 (ip), vehicle: distilled water + Tween-80) is reported as 90 % of control. The T/C (dose: 50.0 mg/kg/injection, schedule: Q01DX009 (ip), vehicle: distilled water + Tween-80) was 99 % of control and the T/C (dose: 100.0 mg/kg/injection, schedule: Q01DX009 (ip), vehicle: distilled water + Tween-80) was 97 % of control.

With `CCOC(=O)c1ccc(NC(=O)Oc2ccc3c(C)cc(=O)oc3c2)cc1` the T/C [1] was 98 % of control, the T/C [2] was 98 % of control and the T/C [3] was 103 % of control.

`O=C(CSC1CCc2ccccc21)N/N=C/c1ccccc1O` (stereo not given) was tested, and the T/C (dose: 50.0 mg/kg/injection, schedule: Q01DX005 (ip), vehicle: Klucel (hydroxypropylcellulose) (HPC)) was 96 % of control, the T/C (dose: 100.0 mg/kg/injection, schedule: Q01DX005 (ip), vehicle: Klucel (hydroxypropylcellulose) (HPC)) was 98 % of control and the T/C (dose: 200.0 mg/kg/injection, schedule: Q01DX005 (ip), vehicle: Klucel (hydroxypropylcellulose) (HPC)) was 89 % of control.

`O=C(NCCCCNCCCNC(=O)c1ccc([N+](=O)[O-])cc1)c1ccc([N+](=O)[O-])cc1` was tested, and the T/C [1] was 97 % of control, the T/C [2] was 92 % of control and the T/C [3] was 98 % of control.
